The record followed here is US20040014779A1, “Methods and compositions related to IRM compounds and toll-like recptor pathways” (3M Innovative Properties Company, priority 2001, published 2004).

Structures are written as SMILES.

Experiment [1] addresses T1, TLR6 (Homo sapiens, UniProt Q9Y2C9, P680H).
T1 construct: expressed in transfected cells; host or cells: THP-1 (pIRES vector)
Put plainly: TNF-α production by THP-1 cells transfected with TLR6DN vs vector control. The experiment is classed as cell-based. From the text:
The human TLR6 dominant negative construct was generated from human PBMC cDNA using the same strategy as the murine TLR6 dominant negative. The proline to histidine mutation for human TLR6 was introduced at amino acid 680 along with an Apa LI restriction enzyme site (5′ sense: SEQ ID NO 5; 5′ antisense: SEQ ID NO 6; 3′ sense: SEQ ID NO 7; 3′ antisense: SEQ ID NO 8).
The amplified 5′ and 3′ sections of each human dominant negative TLR was inserted into pCR-Blunt II-TOPO for sequence verification. The 5′ and 3′ sections were joined together when subcloned into pIRES (Clontech, Palo Alto, Calif.) for expression in mammalian cells.
THP-1 cells (maintained at cell number less than 1×10^6 cells/ml) were co-transfected with the plamid vector containing either the TLR6DN or TLR7DN construct and with a murine H2K^k plasmid (Miltenyi Biotec Inc., Auburn, Calif.) in a 4:1 ratio of TLR plasmid to H2K^k plasmid. Transfection of THP-1 cells was carried out using the transfection reagent FuGENE 6 (Roche Diagnostics Corp., Indianapolis, Ind.) according to the manufacturer's specifications. […]
TNF-α levels were measured with a commercial Human TNF-α ELISA kit (Biosource International, Inc., Camarillo, Calif.) according to the manufacturer's specifications. […]

The target in experiment [2] is T2, TLR6 (Mus musculus, UniProt Q9EPW9).
T2 construct: expressed in transfected cells; host or cells: RAW 264.7 (pIRES vector)
T2 sequence (Q9EPW9 28-795): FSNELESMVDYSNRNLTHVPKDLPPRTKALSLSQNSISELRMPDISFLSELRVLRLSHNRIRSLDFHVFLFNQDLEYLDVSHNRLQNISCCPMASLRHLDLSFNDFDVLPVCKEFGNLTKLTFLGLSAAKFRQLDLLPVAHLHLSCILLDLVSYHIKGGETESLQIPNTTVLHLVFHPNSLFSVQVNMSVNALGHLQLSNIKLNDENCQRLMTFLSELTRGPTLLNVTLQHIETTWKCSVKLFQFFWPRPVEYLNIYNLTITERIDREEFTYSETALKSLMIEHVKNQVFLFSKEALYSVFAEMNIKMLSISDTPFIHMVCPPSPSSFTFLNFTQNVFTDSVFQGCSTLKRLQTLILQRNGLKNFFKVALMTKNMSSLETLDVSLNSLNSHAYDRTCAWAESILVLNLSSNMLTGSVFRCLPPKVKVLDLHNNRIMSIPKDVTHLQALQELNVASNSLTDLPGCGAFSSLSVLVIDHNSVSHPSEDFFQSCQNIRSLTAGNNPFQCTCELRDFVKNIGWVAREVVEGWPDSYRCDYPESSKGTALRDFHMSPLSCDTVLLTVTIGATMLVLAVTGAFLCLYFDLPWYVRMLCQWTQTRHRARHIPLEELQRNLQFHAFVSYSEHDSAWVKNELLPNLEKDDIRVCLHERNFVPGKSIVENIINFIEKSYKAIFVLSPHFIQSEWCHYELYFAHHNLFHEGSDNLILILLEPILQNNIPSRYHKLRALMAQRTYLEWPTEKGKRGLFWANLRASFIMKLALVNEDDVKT
T2 sequence (Q9QUN7 25-784 partner): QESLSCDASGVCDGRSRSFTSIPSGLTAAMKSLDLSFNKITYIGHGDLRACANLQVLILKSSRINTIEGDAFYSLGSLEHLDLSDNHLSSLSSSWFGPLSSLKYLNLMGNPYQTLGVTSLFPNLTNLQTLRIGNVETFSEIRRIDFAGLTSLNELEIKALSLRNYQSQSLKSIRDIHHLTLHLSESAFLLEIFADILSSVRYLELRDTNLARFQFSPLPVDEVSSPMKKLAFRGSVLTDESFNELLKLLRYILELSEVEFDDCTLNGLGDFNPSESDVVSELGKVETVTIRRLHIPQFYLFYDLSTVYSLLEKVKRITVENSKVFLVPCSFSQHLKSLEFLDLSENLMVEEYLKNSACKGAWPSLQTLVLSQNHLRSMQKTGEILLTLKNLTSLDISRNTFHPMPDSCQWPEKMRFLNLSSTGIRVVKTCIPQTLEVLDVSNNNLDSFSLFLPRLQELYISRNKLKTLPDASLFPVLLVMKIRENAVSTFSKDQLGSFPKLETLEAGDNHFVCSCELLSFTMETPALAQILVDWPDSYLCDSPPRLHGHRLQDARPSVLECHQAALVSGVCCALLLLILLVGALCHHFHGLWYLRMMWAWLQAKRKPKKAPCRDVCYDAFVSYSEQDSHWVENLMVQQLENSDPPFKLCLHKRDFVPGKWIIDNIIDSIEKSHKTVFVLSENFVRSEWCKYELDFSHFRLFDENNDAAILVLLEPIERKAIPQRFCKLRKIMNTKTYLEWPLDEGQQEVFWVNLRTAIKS
Put plainly: IRM-stimulated TNF-α production by RAW 264.7 cells overexpressing TLR6. It is filed as cell-based, murine. From the text:
(§1) The murine TLR wild-type vectors were generated by PCR amplification from RAW 264.7 cell cDNA with TLR6 specific primers (sense primer: SEQ ID NO 13; antisense primer: SEQ ID NO 14) or TLR7 specific primers (sense primer: SEQ ID NO 15; antisense primer: SEQ ID NO 16) by Pfu Turbo DNA polymerase kit (Stratagene, La Jolla, Calif.). The PCR products were inserted into pCR-Blunt II-TOPO for sequence verification and then subcloned into pIRES (BD Biosciences Clontech, Palo Alto, Calif.) for expression in mammalian cells.
(§2) THP-1 cells or RAW 264.7 cells were cultured and transfected with the wild type TLR 6 or wild type TLR 7 plasmids described above. The transfections were performed as in Example 1 with a 4:1 ratio of wild-type TLR to H2K plasmid (THP-1 cells) or CD4 (RAW 264.7 cells).
(§3) RAW 264.7 cells were stimulated with various concentrations of resiquimod and analyzed as described in Example 1. Results are provided in Table 4 and are expressed as fold increase in TNF-α production as compared to control transfected RAW 264.7 cells.

The target in a further experiment is T3, TLR7 (Mus musculus, UniProt P58681).
T3 construct: expressed in transfected cells; host or cells: RAW 264.7 (pIRES vector)
T3 sequence (P58681 27-1050): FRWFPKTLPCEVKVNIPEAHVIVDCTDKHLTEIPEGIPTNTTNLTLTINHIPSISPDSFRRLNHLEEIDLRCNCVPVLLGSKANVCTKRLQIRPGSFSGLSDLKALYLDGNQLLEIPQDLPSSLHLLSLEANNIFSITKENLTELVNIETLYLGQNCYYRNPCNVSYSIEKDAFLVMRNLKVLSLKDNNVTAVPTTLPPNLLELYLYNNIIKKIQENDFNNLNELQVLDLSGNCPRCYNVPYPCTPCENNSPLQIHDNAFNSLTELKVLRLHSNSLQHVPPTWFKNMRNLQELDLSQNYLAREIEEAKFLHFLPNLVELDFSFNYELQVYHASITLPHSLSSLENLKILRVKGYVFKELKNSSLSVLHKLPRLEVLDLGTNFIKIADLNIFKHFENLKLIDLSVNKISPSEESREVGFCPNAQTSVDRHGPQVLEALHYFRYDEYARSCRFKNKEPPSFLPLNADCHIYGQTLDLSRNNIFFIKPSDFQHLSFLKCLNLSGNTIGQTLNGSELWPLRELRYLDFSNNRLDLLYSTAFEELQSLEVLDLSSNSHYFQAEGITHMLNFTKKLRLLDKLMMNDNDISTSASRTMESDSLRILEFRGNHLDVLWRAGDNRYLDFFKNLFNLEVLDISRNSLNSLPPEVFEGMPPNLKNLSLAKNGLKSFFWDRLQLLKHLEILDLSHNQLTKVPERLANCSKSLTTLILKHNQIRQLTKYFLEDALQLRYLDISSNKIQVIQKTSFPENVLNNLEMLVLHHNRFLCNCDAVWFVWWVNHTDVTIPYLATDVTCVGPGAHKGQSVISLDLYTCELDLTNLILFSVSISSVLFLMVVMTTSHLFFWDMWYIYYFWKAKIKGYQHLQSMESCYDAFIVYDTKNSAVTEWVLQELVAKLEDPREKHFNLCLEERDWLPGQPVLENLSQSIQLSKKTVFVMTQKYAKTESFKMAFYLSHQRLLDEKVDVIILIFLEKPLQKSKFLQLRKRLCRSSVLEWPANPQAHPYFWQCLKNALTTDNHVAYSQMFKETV
As to the kind of experiment: IRM-stimulated TNF-α production by RAW 264.7 cells overexpressing TLR7. It is filed as cell-based, murine.
Excerpt: as §1, §2, §3

T1 sequence (Q9Y2C9 32-796 P680H): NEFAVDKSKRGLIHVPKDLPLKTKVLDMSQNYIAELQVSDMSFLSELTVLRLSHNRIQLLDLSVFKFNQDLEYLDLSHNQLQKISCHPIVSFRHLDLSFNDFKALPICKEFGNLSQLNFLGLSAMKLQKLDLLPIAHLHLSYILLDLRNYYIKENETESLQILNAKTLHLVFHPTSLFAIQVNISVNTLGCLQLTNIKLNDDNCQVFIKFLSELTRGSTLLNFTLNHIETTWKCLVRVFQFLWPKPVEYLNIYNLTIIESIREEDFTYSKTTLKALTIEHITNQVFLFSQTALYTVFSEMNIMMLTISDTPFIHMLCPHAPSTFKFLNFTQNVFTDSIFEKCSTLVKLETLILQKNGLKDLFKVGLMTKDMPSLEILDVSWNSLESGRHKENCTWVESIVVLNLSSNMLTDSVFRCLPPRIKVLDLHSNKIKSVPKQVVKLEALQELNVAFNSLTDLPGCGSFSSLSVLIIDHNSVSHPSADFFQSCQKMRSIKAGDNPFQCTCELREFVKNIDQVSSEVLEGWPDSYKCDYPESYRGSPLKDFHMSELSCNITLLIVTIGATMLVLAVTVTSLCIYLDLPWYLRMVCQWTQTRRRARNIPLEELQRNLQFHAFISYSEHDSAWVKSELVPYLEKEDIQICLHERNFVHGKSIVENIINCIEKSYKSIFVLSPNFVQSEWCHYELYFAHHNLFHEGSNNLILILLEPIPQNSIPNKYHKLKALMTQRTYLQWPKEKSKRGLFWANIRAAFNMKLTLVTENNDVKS
T1 sequence (O60603 19-784 partner limits assumed): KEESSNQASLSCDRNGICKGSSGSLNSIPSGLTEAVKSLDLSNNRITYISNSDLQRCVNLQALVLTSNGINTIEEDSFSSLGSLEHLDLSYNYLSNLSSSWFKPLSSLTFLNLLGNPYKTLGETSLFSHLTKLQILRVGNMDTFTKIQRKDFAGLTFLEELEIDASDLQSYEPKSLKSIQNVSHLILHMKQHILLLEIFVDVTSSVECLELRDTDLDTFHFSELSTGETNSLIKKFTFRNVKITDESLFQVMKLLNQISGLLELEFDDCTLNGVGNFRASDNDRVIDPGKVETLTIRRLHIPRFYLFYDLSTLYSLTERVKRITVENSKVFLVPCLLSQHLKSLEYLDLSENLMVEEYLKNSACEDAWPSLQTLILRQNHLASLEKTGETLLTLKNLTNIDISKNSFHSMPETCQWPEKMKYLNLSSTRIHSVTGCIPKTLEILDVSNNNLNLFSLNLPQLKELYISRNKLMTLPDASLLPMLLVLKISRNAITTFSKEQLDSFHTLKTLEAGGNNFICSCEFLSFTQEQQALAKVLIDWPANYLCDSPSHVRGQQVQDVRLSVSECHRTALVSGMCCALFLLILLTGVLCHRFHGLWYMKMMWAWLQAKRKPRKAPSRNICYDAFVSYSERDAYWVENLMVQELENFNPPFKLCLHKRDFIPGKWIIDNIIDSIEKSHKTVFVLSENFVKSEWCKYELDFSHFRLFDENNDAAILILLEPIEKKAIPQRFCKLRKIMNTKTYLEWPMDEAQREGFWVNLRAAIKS

Take `CCOCc1nc2c(N)nc3ccccc3c2n1CC(C)(C)O` [Resiquimod, 4-amino-2-ethoxymethyl-α,α-dimethyl-1H-imidazo[4,5-c]quinoline-1-ethanol]: on TLR6 [1] (compared to control vector), the “Effect of TLR6DN on stimulus-induced TNF-α production (in words)” value is on record as “inhibited”. The “TLR6DN % inhibition of TNF-α production” value at TLR6 [1] (stimulus 3 μM, 18 hours, relative to vector control) is 70.1%. For the same molecule, the “Fold increase in TNF-α production over control, TLR6” value is recorded as 9.6 fold at TLR6 [2] (RAW 264.7 overexpressing TLR6, 0.0004 μM); 8.0 fold on TLR6 [2] (RAW 264.7 overexpressing TLR6, 0.001 μM); 9.2 fold on TLR6 [2] (RAW 264.7 overexpressing TLR6, 0.004 μM); 3.5 fold at TLR6 [2] (RAW 264.7 overexpressing TLR6, 0.012 μM); 3.9 fold on TLR6 [2] (RAW 264.7 overexpressing TLR6, 0.037 μM); 1.4 fold on TLR6 [2] (RAW 264.7 overexpressing TLR6, 1 μM). The “Fold increase in TNF-α production over control, TLR6” value was determined as 1.7 fold at TLR6 [2] (RAW 264.7 overexpressing TLR6, 3 μM) and 1.8 fold at TLR6 [2] (RAW 264.7 overexpressing TLR6, 10 μM). Also, the “TLR6 agonist character (in words)” value on TLR6 [2] (from TLR6 overexpression in RAW 264.7 cells) is listed as “agonist”. Moreover, the “Fold increase in TNF-α production over control, TLR7” value at TLR7 (RAW 264.7 overexpressing TLR7, 0.0004 μM) worked out at 14.8 fold; on TLR7 (RAW 264.7 overexpressing TLR7, 0.001 μM), 8.9 fold; at TLR7 (RAW 264.7 overexpressing TLR7, 0.004 μM) it was 5.8 fold; on TLR7 (RAW 264.7 overexpressing TLR7, 0.012 μM), 3.8 fold; at TLR7 (RAW 264.7 overexpressing TLR7, 0.037 μM), 3.5 fold; at TLR7 (RAW 264.7 overexpressing TLR7, 1 μM), 1.3 fold. The “Fold increase in TNF-α production over control, TLR7” value at TLR7 (RAW 264.7 overexpressing TLR7, 3 μM) worked out at 1.0 fold; at TLR7 (RAW 264.7 overexpressing TLR7, 10 μM), 1.5 fold. Also, at TLR7 (from TLR7 overexpression in RAW 264.7 cells), the “TLR7 agonist character (in words)” value is “agonist”.
